In paper PMC11275057, “Biochemical and Functional Profiling of Thioredoxin-Dependent Cytosolic GPX-like Proteins in Euglena gracilis” (Biomolecules, 2024):

Key:
rEgGPXL-4 = tested on: T1, rEgGPXL-4; assay: NADPH oxidation at […] nm, thioredoxin/thioredoxin reductase coupled; assay type: biochemical, Euglena gracilis; details: 6 µM yeast Trx-2 as electron donor, 0.3 µM yeast Trx reductase, 0.2 mM NADPH, 20 mM HEPES-NaOH pH 7.5; t-BOOH up to 0.04 mM
T1 construct: gene EgGPXL-4; full-length ORF, 159 residues, no signal peptide, pCold-II 6xHis tag, E. coli BL21, TALON purified, about 18-20 kDa; plant-type GPX; cDNA 787 bp; printed Cys-64, Gln-66, Phe-67, Glu-71, Gly-100, Asn-126, Phe-127, Lys-129, Gly-136

rEgGPXL-2 = tested on: T2, rEgGPXL-2; assay: as above; assay type: biochemical, Euglena gracilis; details: 6 µM yeast Trx-2 as electron donor, 0.3 µM yeast Trx reductase, 0.2 mM NADPH, 20 mM HEPES-NaOH pH 7.5; t-BOOH up to 0.04 mM
T2 construct: gene EgGPXL-2; full-length ORF, 173 residues, no signal peptide, pCold-II 6xHis tag, E. coli BL21, TALON purified, about 18-20 kDa; animal-type GPX, Cys-45 in place of Sec; cDNA 737 bp

For CC(C)(C)OO [t-BOOH], the Km (rEgGPXL-4) was 38.5 ± 1.6 µM and the Km (rEgGPXL-2) was 28.5 ± 3.1 µM.
